Results: patent US7795222B2, “Methods for treating a corneal disorder and promoting skin wound healing” (Santen Pharmaceutical Co., Ltd., priority 2001, dated 2010)
Where no end group is shown, it is not given here.

Test system: corneal epithelium
Test: Action for extending corneal epithelium (in vitro), corneal blocks in tissue culture
Type: cell-based, male Japanese White rabbit
Conditions: for Extension ratio (%): 24 hours culture, control = 100%, mean of six sections; for activity in corneal epithelium extension test: in combination with substance P; for influence on the extension of corneal epithelium: peptide alone
Experimental: (1) Action For Extending Corneal Epithelium (In Vitro)
Using the cornea of a male Japanese White rabbit and according to the method of Nishida et al. (J. Cell Biol., 97, 1653-1657 (1983)), the length of corneal epithelium extension of the corneal section in a tissue culture system was used as a marker to examine the influence on corneal epithelium extension.
Corneal blocks cut off from rabbit corneal section (6 blocks per group) were cultured in culture media (TC-199) containing a test compound under conditions of 5% CO2 at 37° C. for 24 hours. After culturing, the corneal blocks were fixed in a mix solution of ethanol-glacial acetic acid (volume ratio: 95:5) and then embedded in paraffin to prepare sections. After paraffin was removed from the sections, the resulting sections were stained with hematoxylin-eosin to examine the extended length of the corneal epithelial cell layer with a microscope. As a control, the blocks cultured in the same manner in the culture media without any test compound were used.
Herein, the extension ratio in the table is the mean of six sections per group, as calculated when the elongated length of the control group was defined as the basal line (100%).

[1] = test peptide 1 nM + substance P (20 μM)

Substance	Extension ratio (%) [1]	Extension ratio (%) (test peptide alone, 1 nM)	further results
ASSSRRAP (Human) [Ala-Ser-Ser-Ser-Arg-Arg-Ala-Pro]	134%	–	–
GSSSRAAAP (Human) [Gly-Ser-Ser-Ser-Arg-Ala-Ala-Ala-Pro]	139%	100%	–
GSSSRAAP (Human) [Gly-Ser-Ser-Ser-Arg-Ala-Ala-Pro]	150%	–	–
GSSSRR	142%	94%	–
GSSSRRAP (Human) [Gly-Ser-Ser-Ser-Arg-Arg-Ala-Pro]	140%	97%	activity in corneal epithelium extension test: the activity still remained
GYGSSSRRAPQT (Human) [Gly-Tyr-Gly-Ser-Ser-Ser-Arg-Arg-Ala-Pro-Gln-Thr, the peptide composing the domain C of IGF-I]	134%	104%	activity in corneal epithelium extension test: had the activity
Gly-Ser-Ser-Ser-Arg (GSSSR; Human)	135%	101%	–
Phe-Gly-Leu-Met-NH2 (FGLM-NH2) [tetrapeptide on the C terminal of substance P, reference compound]	–	–	influence on the extension of corneal epithelium: not observed to have any influence; Extension ratio (%) (test peptide alone, 20 μM): 99%
Ser-Ser-Ser-Arg (SSSR; Human)	138%	101%	Extension ratio (%) (test peptide 1 nM + FGLM (20 μM)): 145%
Ser-Ser-Ser-Arg-Arg (SSSRR; Human)	136%	98%	–
Substance P: polypeptide consisting of 11 amino acids (RPKPQQFFGLM-NH2; ends and bridges not checked; UniProt P20366 58-68, looked up) [reference compound]	–	–	influence on the extension of corneal epithelium: not observed to have any influence; Extension ratio (%) (test peptide alone, 20 μM): 94%
